Key:
CDK9/cyclin T = CDK9/cyclin T (Homo sapiens, UniProt P50750); experiment: radiometric protein kinase assay
Procedure: (§3) Buffers. Buffer A: 10 mM MgCl2, 1 mM EGTA, 1 mM DTT, 25 mM Tris-HCl pH 7.5, 50 μg heparin/mL. Buffer C: 60 mM β-glycerophosphate, 15 mM p-nitrophenylphosphate, 25 mM MOPS (pH 7.2), 15 mM EGTA, 15 mM MgCl2, 1 mM DTT, 1 mM sodium vanadate, 1 mM phenylphosphate.
(§4) Kinase activities were assayed in buffer A or C at 30°C at a final ATP concentration of 15 μmol/L. Blank values were subtracted and activities were expressed in percent of the maximal activity, i.e. in the absence of inhibitors. Controls were performed with appropriate dilutions of DMSO.
(§5) Their kinase activity was assayed in buffer A, with 1 mg histone H1/mL, in the presence of 15 μmol/L [γ-33P] ATP (3,000 Ci/mmol; 10 mCi/mL) in a final volume of 30 μL. After 30 min incubation at 30°C, the reaction was stopped by harvesting onto P81 phosphocellulose supernatant (Whatman) using a FilterMate harvester (Packard) and washing in 1% phosphoric acid. Scintillation fluid was added and the radioactivity measured in a Packard counter.
(§6) All data points for construction of dose response curves were recorded in triplicate.

DYRK3 = biological target: T1, DYRK3 (Homo sapiens, UniProt O43781); experiment: radiometric protein kinase assay; assay type: biochemical; conditions: 15 μmol/L ATP; read-out: IC50 DYRK 3
T1 sequence (O43781 1-588): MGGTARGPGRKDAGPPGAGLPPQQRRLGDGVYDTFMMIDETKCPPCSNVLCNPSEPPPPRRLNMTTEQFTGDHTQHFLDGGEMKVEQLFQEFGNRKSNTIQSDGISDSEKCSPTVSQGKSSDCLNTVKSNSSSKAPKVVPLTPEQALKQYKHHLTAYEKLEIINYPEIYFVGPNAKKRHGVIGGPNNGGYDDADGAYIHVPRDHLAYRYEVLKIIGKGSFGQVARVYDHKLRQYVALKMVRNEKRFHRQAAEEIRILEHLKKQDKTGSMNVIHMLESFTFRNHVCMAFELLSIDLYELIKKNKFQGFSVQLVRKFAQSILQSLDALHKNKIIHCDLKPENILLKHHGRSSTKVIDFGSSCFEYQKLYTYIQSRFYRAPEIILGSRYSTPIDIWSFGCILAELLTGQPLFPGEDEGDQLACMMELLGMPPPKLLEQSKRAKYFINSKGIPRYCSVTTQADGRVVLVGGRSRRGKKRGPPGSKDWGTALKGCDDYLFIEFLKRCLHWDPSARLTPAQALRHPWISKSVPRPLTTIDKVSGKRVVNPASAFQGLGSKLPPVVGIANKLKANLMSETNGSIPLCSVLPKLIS

CK1δ/ε = experiment: radiometric protein kinase assay; assay type: biochemical, porcine; conditions: 15 μmol/L ATP; read-out: IC50 CK1
CLK4 = CLK4 (Mus musculus, UniProt O35493); experiment: radiometric protein kinase assay
CLK4, sequence (O35493 whole entry): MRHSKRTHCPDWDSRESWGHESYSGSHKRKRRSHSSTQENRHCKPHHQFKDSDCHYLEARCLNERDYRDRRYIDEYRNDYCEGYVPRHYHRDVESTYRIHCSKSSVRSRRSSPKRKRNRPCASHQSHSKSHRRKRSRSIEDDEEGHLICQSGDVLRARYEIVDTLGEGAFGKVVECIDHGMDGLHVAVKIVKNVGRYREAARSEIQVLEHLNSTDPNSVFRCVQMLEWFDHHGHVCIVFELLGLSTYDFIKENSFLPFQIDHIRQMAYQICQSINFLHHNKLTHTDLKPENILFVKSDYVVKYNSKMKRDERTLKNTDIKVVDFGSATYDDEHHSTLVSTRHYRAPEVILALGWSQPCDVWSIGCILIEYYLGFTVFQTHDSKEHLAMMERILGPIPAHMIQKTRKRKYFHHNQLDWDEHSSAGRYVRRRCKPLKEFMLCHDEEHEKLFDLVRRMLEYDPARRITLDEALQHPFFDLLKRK
Procedure: as §3, §4, §5, §6

CLK1 = CLK1 (Mus musculus, UniProt P22518); experiment: radiometric protein kinase assay
CLK1, sequence (P22518 whole entry): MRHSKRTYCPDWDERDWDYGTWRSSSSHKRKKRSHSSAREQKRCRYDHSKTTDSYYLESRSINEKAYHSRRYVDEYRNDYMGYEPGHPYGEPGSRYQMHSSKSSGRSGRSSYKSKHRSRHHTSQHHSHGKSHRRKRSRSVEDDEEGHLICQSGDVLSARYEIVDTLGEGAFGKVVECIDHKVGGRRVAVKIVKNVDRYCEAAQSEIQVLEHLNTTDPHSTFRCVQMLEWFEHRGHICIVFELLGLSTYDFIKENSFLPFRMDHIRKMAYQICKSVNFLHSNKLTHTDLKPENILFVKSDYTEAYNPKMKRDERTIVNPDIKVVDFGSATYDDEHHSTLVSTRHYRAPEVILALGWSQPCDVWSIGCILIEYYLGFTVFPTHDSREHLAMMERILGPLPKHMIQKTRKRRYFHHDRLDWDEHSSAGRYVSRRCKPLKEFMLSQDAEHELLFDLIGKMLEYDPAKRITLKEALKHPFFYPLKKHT
Procedure: Buffer A: 10 mM MgCl2, 1 mM EGTA, 1 mM DTT, 25 mM Tris-HCl pH 7.5, 50 μg heparin/mL. Buffer C: 60 mM β-glycerophosphate, 15 mM p-nitrophenylphosphate, 25 mM MOPS (pH 7.2), 15 mM EGTA, 15 mM MgCl2, 1 mM DTT, 1 mM sodium vanadate, 1 mM phenylphosphate.
Controls were performed with appropriate dilutions of DMSO. The GS-1, CKS, CDK7/9 tide and RS peptide substrates were obtained from Proteogenix (Oberhausbergen, France).
CDK1/cyclin B (M phase starfish oocytes, native), CDK2/cyclin A and CDK5/p25 (human, recombinant) were prepared as previously described [33]. […] ATP (3,000 Ci/mmol; 10 mCi/mL) in a final volume of 30 μL. After 30 min incubation at 30°C, the reaction was stopped by harvesting onto P81 phosphocellulose supernatant (Whatman) using a FilterMate harvester (Packard) and washing in 1% phosphoric acid. Scintillation fluid was added and the radioactivity measured in a Packard counter.
as §6

CLK3 = CLK3 (Mus musculus, UniProt O35492); experiment: radiometric protein kinase assay
CLK3, sequence (O35492 whole entry): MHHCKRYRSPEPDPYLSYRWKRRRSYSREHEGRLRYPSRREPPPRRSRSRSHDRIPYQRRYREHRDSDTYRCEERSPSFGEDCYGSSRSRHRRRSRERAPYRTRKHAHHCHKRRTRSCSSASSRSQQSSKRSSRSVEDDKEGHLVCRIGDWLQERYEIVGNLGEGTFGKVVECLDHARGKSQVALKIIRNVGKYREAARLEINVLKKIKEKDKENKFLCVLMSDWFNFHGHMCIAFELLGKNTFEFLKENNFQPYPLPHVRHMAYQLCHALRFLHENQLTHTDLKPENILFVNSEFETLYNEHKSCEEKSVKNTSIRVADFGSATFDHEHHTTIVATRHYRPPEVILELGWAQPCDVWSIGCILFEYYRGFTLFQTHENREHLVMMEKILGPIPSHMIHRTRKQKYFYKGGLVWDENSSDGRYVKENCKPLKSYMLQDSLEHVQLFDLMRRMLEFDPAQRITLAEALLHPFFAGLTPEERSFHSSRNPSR
Procedure: as §3, §4, §5, §6

CDK5/p25 = biological target: T2, CDK5/p25 (Homo sapiens, UniProt Q00535); experiment: radiometric protein kinase assay; assay type: biochemical; conditions: 15 μmol/L ATP
T2 construct: made in house
T2 sequence (Q00535 whole entry): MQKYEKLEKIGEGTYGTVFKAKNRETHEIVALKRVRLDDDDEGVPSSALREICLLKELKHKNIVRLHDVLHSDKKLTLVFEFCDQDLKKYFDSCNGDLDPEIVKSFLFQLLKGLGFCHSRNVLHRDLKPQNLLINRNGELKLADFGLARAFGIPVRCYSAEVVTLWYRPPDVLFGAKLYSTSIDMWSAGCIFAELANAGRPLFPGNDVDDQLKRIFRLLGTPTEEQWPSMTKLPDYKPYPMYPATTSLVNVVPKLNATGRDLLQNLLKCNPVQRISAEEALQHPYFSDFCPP
T2 sequence (Q15078 99-307 partner limits assumed): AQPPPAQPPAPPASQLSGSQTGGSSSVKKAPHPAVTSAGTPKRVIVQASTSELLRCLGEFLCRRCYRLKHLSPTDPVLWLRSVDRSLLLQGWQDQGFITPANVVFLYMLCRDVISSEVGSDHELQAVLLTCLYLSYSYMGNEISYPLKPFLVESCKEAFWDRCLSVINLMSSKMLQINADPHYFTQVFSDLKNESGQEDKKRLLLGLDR

[1] = system: HT-29 colon carcinoma cells; experiment: crystal violet proliferation assay; assay type: cell-based; conditions: Homo sapiens, 72 h exposure, triplicate
Procedure: (§1) For experiments with RC-124 cells, microtiter plates had been pretreated in the following way: 30 μL of a sterilized gelatine solution (1.5% (m/V)) were added to each well of flat bottom 96-well plates, the plates were covered with their lids, incubated for 1h at 37°C, the excess solution was removed, the wells were washed with PBS 7.4 pH, and the new cell-culture medium was added.
(§2) The antiproliferative effects were determined according to a routinely used method. In short: a volume of 100 μL of HT-29 cells (2565 cells/mL), MDA-MB-231 cells (4120 cells/mL), MCF-7 cells (4840 cells/mL) or RC-124 cells (1460 cells/mL) was transferred into the wells of 96-well plates (note: for RC-124 pretreated plates were used, see above) and incubated at 37°C/5% CO2 for 72 h (MCF-7, MDA-MB-231, RC-124) or 48 h (HT-29). Stock solutions of 8c in DMSO were prepared and diluted with the respective cell culture medium to graded concentrations (final concentration of […]: 0.1% v/v). […] Results were calculated as the mean values of three independent experiments.

[2] = system: MCF-7 breast carcinoma cells; experiment: crystal violet proliferation assay; assay type: cell-based; conditions: Homo sapiens, MCF7, 96 h exposure, duplicate
Procedure: as §1, §2

[3] = system: RC-124 healthy human kidney cells; experiment: crystal violet proliferation assay; assay type: cell-based; conditions: 96 h exposure, triplicate
Procedure: as §1, §2

[4] = system: MDA-MB-231 breast cancer cells; experiment: crystal violet proliferation assay; assay type: cell-based; conditions: Homo sapiens, 96 h exposure, triplicate
Procedure: as §1, §2

GSK-3 = experiment: radiometric protein kinase assay; assay type: biochemical, porcine; conditions: 15 μmol/L ATP; read-out: IC50 GSK3
DYRK1A = DYRK1A (Homo sapiens, UniProt Q13627); experiment: radiometric protein kinase assay; assay type: biochemical; conditions: 15 μmol/L ATP; read-out: IC50 DYRK 1A

CDK9/cyclin T, sequence (P50750 whole entry): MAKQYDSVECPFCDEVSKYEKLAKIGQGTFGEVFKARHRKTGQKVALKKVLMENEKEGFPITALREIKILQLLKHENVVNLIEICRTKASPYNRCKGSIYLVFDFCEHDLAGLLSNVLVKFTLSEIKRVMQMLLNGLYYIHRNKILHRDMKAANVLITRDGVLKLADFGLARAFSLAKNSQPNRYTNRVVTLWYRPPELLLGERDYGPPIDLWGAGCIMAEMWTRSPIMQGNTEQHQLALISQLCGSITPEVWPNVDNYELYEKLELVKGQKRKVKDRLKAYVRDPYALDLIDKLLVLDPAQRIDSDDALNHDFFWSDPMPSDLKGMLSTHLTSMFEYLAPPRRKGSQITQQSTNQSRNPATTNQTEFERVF
CDK9/cyclin T, sequence (O60563 whole entry partner): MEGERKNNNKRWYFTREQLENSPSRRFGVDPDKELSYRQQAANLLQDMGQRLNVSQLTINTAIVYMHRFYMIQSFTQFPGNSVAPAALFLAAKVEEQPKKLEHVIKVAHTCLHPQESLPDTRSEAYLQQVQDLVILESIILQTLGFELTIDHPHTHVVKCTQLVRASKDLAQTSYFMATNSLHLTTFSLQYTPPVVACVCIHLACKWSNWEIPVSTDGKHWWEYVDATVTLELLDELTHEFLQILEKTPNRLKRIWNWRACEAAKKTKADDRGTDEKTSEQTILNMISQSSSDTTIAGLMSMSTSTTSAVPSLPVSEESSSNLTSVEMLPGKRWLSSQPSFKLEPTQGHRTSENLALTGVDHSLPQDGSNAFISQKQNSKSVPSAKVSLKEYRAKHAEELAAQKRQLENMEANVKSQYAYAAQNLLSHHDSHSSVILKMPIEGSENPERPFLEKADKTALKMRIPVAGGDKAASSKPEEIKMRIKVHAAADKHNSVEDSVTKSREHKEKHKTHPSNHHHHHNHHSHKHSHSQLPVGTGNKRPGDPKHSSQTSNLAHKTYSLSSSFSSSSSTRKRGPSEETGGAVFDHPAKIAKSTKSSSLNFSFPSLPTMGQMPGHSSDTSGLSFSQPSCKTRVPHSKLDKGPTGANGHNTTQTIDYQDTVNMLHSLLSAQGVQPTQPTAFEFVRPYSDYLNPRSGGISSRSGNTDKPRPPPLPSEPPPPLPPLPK

SMILES: O=C1NCc2ccc3c(-c4cccc(Cl)c4)c[nH]c3c21 [8c, 3-(3-Chlorophenyl)-6,7-dihydropyrrolo[3,4-g]indol-8(1H)-one]
- IC50 (CDK9/cyclin T): > 10000 nM
- IC50 (DYRK3): > 10000 nM
- IC50 (CK1δ/ε): > 10000 nM
- IC50 (CLK4): 28 nM
- IC50 (CLK1): 88 nM
- IC50 (CLK3): > 10000 nM
- IC50 (CDK5/p25): > 10000 nM
- GI50 [1]: 120 ± 10 nM
- GI50 [2]: 350 ± 160 nM
- GI50 [3]: 440 ± 100 nM
- GI50 [4]: 280 ± 50 nM
- IC50 (GSK-3): > 10000 nM
- IC50 (DYRK1A): > 10000 nM

Source: article PMC5933782, “Molecular structures of cdc2-like kinases in complex with a new inhibitor chemotype” (PLoS ONE, 2018)
